Source: patent US6737383B1, “Herbicidal oxadiazolidines” (priority 1999, dated 2004)

Assays:
bedstraw = test: Test B pre/postemergence bedstraw; type: in vivo, Galium aparine
Summary of the method: (§1)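 Response is a visual 0-to-10 score relative to untreated plants, where 0 means no effect and 10 means complete control, taken twelve to sixteen days after application. Treatments went onto soil at planting and onto foliage of 1- to 4-leaf plants, using a surfactant-containing non-phytotoxic solvent.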

surinam grass = test: Test B pre/postemergence surinam grass; type: in vivo, Brachiaria decumbens
Summary of the method: as §1

cocklebur = test: Test B pre/postemergence cocklebur; type: in vivo, Xanthium strumarium
Summary of the method: as §1

corn = test: Test B pre/postemergence corn; type: in vivo, Zea mays
Summary of the method: as §1

giant foxtail = test: Test B pre/postemergence giant foxtail; type: in vivo, Setaria faberii
Summary of the method: as §1

pigweed = test: Test B pre/postemergence pigweed; type: in vivo, Amaranthus retroflexus
Summary of the method: as §1

rape = test: Test B pre/postemergence rape; type: in vivo, Brassica napus
Summary of the method: as §1

soybean = test: Test B pre/postemergence soybean; type: in vivo, Glycine max
Summary of the method: as §1

sugar beet = test: Test B pre/postemergence sugar beet; type: in vivo, Beta vulgaris
Summary of the method: as §1

velvetleaf = test: Test B pre/postemergence velvetleaf; type: in vivo, Abutilon theophrasti
Summary of the method: as §1

wheat = test: Test B pre/postemergence wheat; type: in vivo, Triticum aestivum
Summary of the method: as §1

wild oat = test: Test B pre/postemergence wild oat; type: in vivo, Avena fatua
Summary of the method: as §1

purple nutsedge = test: Test B pre/postemergence purple nutsedge; type: in vivo, Cyperus rotundus
Summary of the method: as §1

rice = test: Test B flood test rice; type: in vivo, Oryza sativa
Summary of the method: (§2)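 Each value is a visual injury score relative to controls, with 10 meaning complete control and 0 no effect. Evaluation took place twelve to sixteen days after the 2-leaf-stage plants were treated and kept in the greenhouse.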

smallflower flatsedge = test: Test B flood test smallflower flatsedge; type: in vivo, Cyperus difformis
Summary of the method: as §2

duck salad = test: Test B flood test duck salad; type: in vivo, Heteranthera limosa
Summary of the method: as §2

[1] = Preemergence, Rate 62 g/ha, scale of 0 to 10 where 0 is no effect and 10 is complete control
[2] = Preemergence, Rate 250 g/ha, scale of 0 to 10 where 0 is no effect and 10 is complete control
[3] = Preemergence, Rate 500 g/ha, scale of 0 to 10 where 0 is no effect and 10 is complete control
[4] = Rate 62 g/ha, Postemergence, scale 0 to 10, 0 no effect, 10 complete control
[5] = Rate 125 g/ha, Postemergence, scale of 0 to 10 where 0 is no effect and 10 is complete control
[6] = Rate 250 g/ha, Postemergence, scale of 0 to 10 where 0 is no effect and 10 is complete control
[7] = Rate 500 g/ha, Postemergence, scale 0 to 10, 0 no effect, 10 complete control
[8] = Rate 62 g/ha, headed Pre-emergence (flood test species), scale 0 to 10 (0 no effect, 10 complete control)
[9] = Rate 125 g/ha, Pre-emergence, flood test species, scale 0 to 10 where 0 is no effect and 10 is complete control
[10] = Rate 250 g/ha, Pre-emergence, flood-test species, scale 0 to 10, 0 is no effect, 10 is complete control
[11] = Rate 500 g/ha, Pre-emergence, flood test species, scale 0 to 10 (0 no effect, 10 complete control)

Cc1ccccc1-n1c(=O)on(C(=O)N(c2ccncc2)C(C)C)c1=O [Compound 301]
0: Bedstraw plant response rating (bedstraw; [1]) | Bedstraw plant response rating (0 to 10 scale) (bedstraw; Preemergence, Rate 125 g/ha) | Bedstraw plant response rating (bedstraw; [2]) | Bedstraw plant response rating (bedstraw; [3]) | Bedstraw plant response rating (bedstraw; [4]) | Bedstraw plant response rating (bedstraw; [5]) | B. signalgrass plant response rating (surinam grass; [1]) | B. signalgrass plant response rating (0 to 10 scale, 0 is no effect, 10 is complete control) (surinam grass; Preemergence, Rate 125 g/ha) | B. signalgrass plant response rating (surinam grass; [2]) | B. signalgrass plant response rating (surinam grass; [3]) | B. signalgrass plant response rating (surinam grass; [4]) | B. signalgrass plant response rating (surinam grass; [5]) | Plant response rating, B. signalgrass (surinam grass; [6]) | B. signalgrass plant response rating (surinam grass; [7]) | Cocklebur plant response rating (cocklebur; [1]) | Cocklebur plant response rating (0 to 10 scale) (cocklebur; Preemergence, Rate 125 g/ha) | Cocklebur plant response rating (cocklebur; [2]) | Cocklebur plant response rating (cocklebur; [4]) | Cocklebur plant response rating (cocklebur; [5]) | Plant response rating, Cocklebur (cocklebur; [6]) | Cocklebur plant response rating (cocklebur; [7]) | Corn plant response rating (corn; [1]) | Corn plant response rating (0 to 10 scale) (corn; Preemergence, Rate 125 g/ha) | Corn plant response rating (corn; [2]) | Corn plant response rating (corn; [3]) | Corn plant response rating (corn; [4]) | Corn plant response rating (corn; [5]) | Plant response rating, Corn (corn; [6]) | Corn plant response rating (corn; [7]) | Giant foxtail plant response rating (giant foxtail; [1]) | Giant foxtail plant response rating (0 to 10 scale) (giant foxtail; Preemergence, Rate 125 g/ha) | Giant foxtail plant response rating (giant foxtail; [2]) | Giant foxtail plant response rating (giant foxtail; [3]) | Giant foxtail plant response rating (giant foxtail; [4]) | Giant foxtail plant response rating (giant foxtail; [5]) | Plant response rating, Giant foxtail (giant foxtail; [6]) | Redroot pigweed plant response rating (pigweed; [1]) | Redroot pigweed plant response rating (0 to 10 scale) (pigweed; Preemergence, Rate 125 g/ha) | Redroot pigweed plant response rating (pigweed; [2]) | Redroot pigweed plant response rating (pigweed; [3]) | Redroot pigweed plant response rating (pigweed; [4]) | Redroot pigweed plant response rating (pigweed; [5]) | Plant response rating, Redroot pigweed (pigweed; [6]) | Rape plant response rating (rape; [1]) | Rape plant response rating (0 to 10 scale) (rape; Preemergence, Rate 125 g/ha) | Rape plant response rating (rape; [2]) | Rape plant response rating (rape; [3]) | Rape plant response rating (rape; [4]) | Rape plant response rating (rape; [5]) | Plant response rating, Rape (rape; [6]) | Soybean plant response rating (soybean; [1]) | Soybean plant response rating (0 to 10 scale) (soybean; Preemergence, Rate 125 g/ha) | Soybean plant response rating (soybean; [2]) | Soybean plant response rating (soybean; [3]) | Soybean plant response rating (soybean; [4]) | Soybean plant response rating (soybean; [5]) | Plant response rating, Soybean (soybean; [6]) | Sugarbeets plant response rating (sugar beet; [1]) | Sugarbeets plant response rating (0 to 10 scale) (sugar beet; Preemergence, Rate 125 g/ha) | Sugarbeets plant response rating (sugar beet; [2]) | Sugarbeets plant response rating (sugar beet; [3]) | Sugarbeets plant response rating (sugar beet; [4]) | Sugarbeets plant response rating (sugar beet; [5]) | Plant response rating, Sugarbeets (sugar beet; [6]) | Velvetleaf plant response rating (velvetleaf; [1]) | Velvetleaf plant response rating (0 to 10 scale) (velvetleaf; Preemergence, Rate 125 g/ha) | Velvetleaf plant response rating (velvetleaf; [2]) | Velvetleaf plant response rating (velvetleaf; [3]) | Velvetleaf plant response rating (velvetleaf; [4]) | Velvetleaf plant response rating (velvetleaf; [5]) | Plant response rating, Velvetleaf (velvetleaf; [6]) | Wheat plant response rating (wheat; [1]) | Wheat plant response rating (0 to 10 scale) (wheat; Preemergence, Rate 125 g/ha) | Wheat plant response rating (wheat; [2]) | Wheat plant response rating (wheat; [3]) | Wheat plant response rating (wheat; [4]) | Wheat plant response rating (wheat; [5]) | Plant response rating, Wheat (wheat; [6]) | Wild oats plant response rating (wild oat; [1]) | Wild oats plant response rating (0 to 10 scale) (wild oat; Preemergence, Rate 125 g/ha) | Wild oats plant response rating (wild oat; [2]) | Wild oats plant response rating (wild oat; [3]) | Wild oats plant response rating (wild oat; [4]) | Wild oats plant response rating (wild oat; [5]) | Plant response rating, Wild oats (wild oat; [6]) | Nutsedge plant response rating (purple nutsedge; [1]) | Nutsedge plant response rating (0 to 10 scale) (purple nutsedge; Preemergence, Rate 125 g/ha) | Nutsedge plant response rating (purple nutsedge; [2]) | Nutsedge plant response rating (purple nutsedge; [3]) | Nutsedge plant response rating (purple nutsedge; [4]) | Nutsedge plant response rating (purple nutsedge; [5]) | Plant response rating, Nutsedge (purple nutsedge; [6]) | Rice plant response rating (rice; [8]) | Rice plant response rating (rice; [9]) | Rice plant response rating (rice; [10]) | Rice plant response rating (rice; [11]) | S. Flatsedge plant response rating (smallflower flatsedge; [8]) | S. Flatsedge plant response rating (smallflower flatsedge; [9]) | S. Flatsedge plant response rating (smallflower flatsedge; [10]) | S. Flatsedge plant response rating (smallflower flatsedge; [11]) | Ducksalad plant response rating (duck salad; [8]) | Ducksalad plant response rating (duck salad; [9]) | Ducksalad plant response rating (duck salad; [10]) | Ducksalad plant response rating (duck salad; [11])
